No end group written: not given here.

The test deals with T1, GPR103 Q184^4.64A (Homo sapiens, UniProt Q96P65, Q184A).
T1 construct: we used human full-length QRFPR-encoding plasmids; expressed in transfected cells; host or cells: HEK293 cells, pCAGGS vector
T1 sequence (Q96P65 1-431 Q184A): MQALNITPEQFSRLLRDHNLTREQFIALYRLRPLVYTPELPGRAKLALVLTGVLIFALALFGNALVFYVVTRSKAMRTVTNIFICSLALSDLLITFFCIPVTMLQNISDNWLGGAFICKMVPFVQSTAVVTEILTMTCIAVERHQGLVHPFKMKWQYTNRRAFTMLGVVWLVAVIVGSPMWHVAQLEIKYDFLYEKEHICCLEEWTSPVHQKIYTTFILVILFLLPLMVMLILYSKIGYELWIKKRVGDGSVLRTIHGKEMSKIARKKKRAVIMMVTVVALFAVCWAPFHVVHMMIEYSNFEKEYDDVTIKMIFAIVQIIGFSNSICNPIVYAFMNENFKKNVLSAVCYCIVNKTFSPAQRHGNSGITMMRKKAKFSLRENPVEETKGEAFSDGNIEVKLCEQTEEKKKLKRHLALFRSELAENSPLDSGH
Briefly: TGFα shedding assay; Exp. level WT (1:5). Format: cell-based. The protocol: For the TGFα shedding assay and the flow cytometry analysis, we used human full-length QRFPR-encoding plasmids. Specifically, GPR103 was N-terminally modified with an HA signal sequence followed by a FLAG epitope and then a flexible linker ([…]; the FLAG epitope is underlined) and inserted into the pCAGGS vector. Plasmid encoding GPR103 mutants were generated using Quickchange Site-Directed Mutagensis kit (Agilent).
The TGFα shedding assay was performed as described previously with minor modifications. Plasmid transfection was performed in a 6-well plate with a mixture of 500 ng (per well in a 6-well plate) AP-TGFα-encoding plasmid and 200 ng GPR103-encoding plasmid. After 1-day culture, the transfected cells were harvested by trypsinization, pelleted by centrifugation at 190 × g for 5 min, and washed once with 5 mM HEPES (pH 7.4)-containing Hank’s Balanced Salt Solution (HBSS). After centrifugation, the cells were resuspended in 8 mL of the HEPES-containing HBSS. The cell suspension was seeded in a 96-well culture plate (cell plate) at a volume of 90 μL (per well hereafter) and incubated in a 37 °C incubator with 5% CO2 for 30 min. […] After spinning the cell plates at 190 × g for 2 min, 80 μL of conditioned media was transferred to an empty 96-well plate (conditioned media (CM) plate). Then, 80 μL of AP reaction solution (10 mM p-nitrophenylphosphate (p-NPP), 120 mM Tris-HCl (pH 9.5), 40 mM NaCl, and 10 mM MgCl2) was dispensed into the cell plates and the CM plates. Absorbance at 405 nm of the plates was measured using a microplate reader (SpectraMax 340 PC384, Molecular Devices) before and after 1-h incubation at room temperature. Ligand-induced AP-TGFα release was calculated by subtracting spontaneous AP-TGFα release signal from ligand-induced AP-TGFα release signal. The AP-TGFα release signals were fitted to a four-parameter sigmoidal concentration–response curve, using the Prism 10 software (GraphPad Prism). For each replicate experiment, the pEC50 parameter (negative logarithmic values of EC50 values) of the individual GPR103 mutants were normalized to that of the wild-type GPR103 performed in parallel, and resulting ∆pEC50 values were used to denote ligand response activity of the mutants. […]
Exp. le vel: WT (1:5 0)Exp. le vel: WT (1:5 0)Exp. le vel: WT (1:5 0)Exp. le vel: WT (1:2 0)Exp. le vel: WT (1:2 0)Exp. le vel: WT (1:1 0) […]
L1 4N - t e r mA F2 5N - t e r mA I 2 6N - t e r mA Y 2 9N - t e r mA C 9 82 .5 7A T10 22 .6 1A Exp . l eve l: WT (1 :5)Exp . l evel : >WT (1 :1)Exp. le vel: WT (1:2 0)Exp. le vel: WT (1:2 0)Exp. le vel: WT (1:5 0)Exp . l eve l: WT (1 :1) […]
Exp. le vel: WT (1:1 0)Exp. le vel: WT (1:2 0) C 1 1 83 .2 5AExp. le vel: WT (1:5 0)Exp. le vel: WT (1:5 0)Exp. le vel: WT (1:2 0)Exp . l eve l: WT (1 :5) […]
Exp. le vel: WT (1:5 0)Exp. le vel: WT (1:1 0)Exp. le vel: WT (1:5 0) E203ECL2AExp . l evel : >WT (1 :1)Exp. le vel: WT (1:5 0)Exp. le vel: WT (1:5 0) […]
Exp . l eve l: WT (1 :1) F28Exp. le vel: WT (1:5 0) C 2 8 56 .4 7AExp. le vel: WT (1:2 0) WExp. le vel: WT (1:2 0) F28Exp. le vel: WT (1:5 0)Exp . l evel : >WT (1 :1) […]
Exp. le vel: WT (1:5 0)Exp. le vel: WT (1:5 0) C 3 2 77 .4 8AExp . l eve l: WT (1 :5)Exp . l evel : >WT (1 :1)Exp . l evel : >WT (1 :1) […]
Suppl eme nt ary Figure 1 | Mutational analysis of GPR103. […]
mutants. Data are presented as mean values ± SEM, normally n=3-5; dots), each performed in triplicate. b-d Cell-surface expression (b) and QRFP26-in-duced activation of GPR103 (c, d) were analyzed by the flow cytometry and the TGFα shedding assay, respectively. From the concentration–response curves (a), Emax (c) and ΔpEC50 (d) values relative to the wild type were calculated. Colors in the mutant bars indicate an expression level matching to that of titrated wild type. Statistical analyses were performed using the ordinary one-way ANOVA followed by Dunnett tests with the expression-matched […]

In the case of TSGPLGNLAEELNGYSRKKGGFSFRF-NH2 [QRFP26], the Emax (mean) stood at 99.8%. For the same substance, for the setting “n = 3”, the EC50 was 234 nM and the Emax came to 103 ± 2.2%.

A word on the Emax: it is the greatest response seen or fitted, relative to the assay's reference. For orientation: EC50 means the concentration that produces a half-maximal response. Higher therefore signals weaker potency.

The values above are taken from paper PMC11187126, “Structure and dynamics of the pyroglutamylated RF-amide peptide QRFP receptor GPR103” (Nature Communications, 2024).
